Data as given in paper PMC11100219, “Dual-function antimicrobial-antibiofilm peptide hybrid to tackle biofilm-forming Staphylococcus epidermidis” (Annals of Clinical Microbiology and Antimicrobials, 2024).
≈ marks a conversion by molar mass, not a printed value. Residues, ends and D or L forms follow the SMILES beside them.

Key:
[1] = system: Listeria monocytogenes 10403s; test: Broth microdilution MIC / MBC; type: cell-based; conditions: 24 h, 37°C; for MIC: broth microdilution, MHB, 0.98-250 µg/mL, visible inspection; for MBC: plating of non-turbid wells on TSA
Method: (§1) The minimal inhibitory concentrations (MICs) of peptide derivatives versus planktonic bacteria were assessed using a modification of the broth microdilution assay previously described in the National Committee for Clinical Laboratory Standards (NCCLS). In brief, bacteria at mid-logarithmic growth were collected by centrifugation at 2,500 × g for 5 min. Subsequently, the pellet was resuspended and adjusted in Mueller-Hinton Broth (MHB; BD Bacto™, USA) to an OD620 of 0.05. Fifty µL of bacterial suspensions was transferred to 96-well microplates. Later, 50 µL of peptide derivatives at 0.98–250 µg/mL in 10 mM PBS, was added to wells and incubated for 24 h at 37°C with continuous shaking at 220 rpm. […] The experiments were done in three technical replicates and repeated independently.
(§2) To determine minimal bactericidal concentrations (MBCs) of the peptides, 50 µL of supernatant from non-turbid wells was plated on TSA, and the number of colony-forming units (CFUs) was observed after 24 h of incubation at 37°C. MBC was defined as the minimum concentration of peptide at which no bacterial colony was observed on the plate.

[2] = system: Acinetobacter baumanii MT strain; test: Broth microdilution MIC / MBC; type: cell-based; conditions: 24 h, 37°C; for MIC: broth microdilution, MHB, 0.98-250 µg/mL, visible inspection; for MBC: plating of non-turbid wells on TSA
Method: as §1, §2

[3] = system: Bacillus cereus ATCC 11778; test: Broth microdilution MIC / MBC; type: cell-based; conditions: 24 h, 37°C; for MIC: broth microdilution, MHB, 0.98-250 µg/mL, visible inspection; for MBC: plating of non-turbid wells on TSA
Method: as §1, §2

[4] = system: Staphylococcus aureus ATCC 25923; test: Broth microdilution MIC / MBC; type: cell-based; conditions: 24 h, 37°C; for MIC: broth microdilution, MHB, 0.98-250 µg/mL, visible inspection; for MBC: plating of non-turbid wells on TSA
Method: as §1, §2

[5] = system: Pseudomonas aeruginosa ATCC 27853; test: Broth microdilution MIC / MBC; type: cell-based; conditions: 24 h, 37°C; for MIC: broth microdilution, MHB, 0.98-250 µg/mL, visible inspection; for MBC: plating of non-turbid wells on TSA
Method: as §1, §2

[6] = system: Staphylococcus epidermidis ATCC 35984; test: Broth microdilution MIC / MBC; type: cell-based; conditions: 24 h, 37°C; for MIC: broth microdilution, MHB, 0.98-250 µg/mL, visible inspection; for MBC: plating of non-turbid wells on TSA
Method: as §1, §2

[7] = system: Escherichia coli ATCC 25922; test: Broth microdilution MIC / MBC; type: cell-based; conditions: 24 h, 37°C; for MIC: broth microdilution, MHB, 0.98-250 µg/mL, visible inspection; for MBC: plating of non-turbid wells on TSA
Method: as §1, §2

[8] = system: Salmonella Typhimurium ATCC 13311; test: Broth microdilution MIC / MBC; type: cell-based; conditions: 24 h, 37°C; for MIC: broth microdilution, MHB, 0.98-250 µg/mL, visible inspection; for MBC: plating of non-turbid wells on TSA
Method: as §1, §2

[9] = system: S. epidermidis (ATCC 35984) biofilm; test: Biofilm-formation inhibitory activity, crystal violet staining; type: cell-based, Staphylococcus epidermidis; conditions: CV staining, TSB, 10^6 CFU/mL, 24 h, 37°C, 0.98-250 µg/mL; for MBIC50: minimum concentration inhibiting biofilm formation more than 50%; for MBIC90: minimum concentration inhibiting biofilm formation more than 90%
Method: The biofilm inhibitory activity of peptide derivatives was assessed by modified crystal violet (CV) staining. Briefly, the pellet of S. epidermidis (ATCC 35984) was collected through centrifugation of bacterial suspensions grown overnight at 2,500 × g for 5 min. Subsequently, the pellet was resuspended and diluted with TSB to a final concentration of 10^6 CFU/mL. Then, 50 µL of these diluted suspensions was transferred to 96-well microplates containing same volume of peptide derivatives in 10 mM phosphate buffer saline (PBS; Caisson Labs, USA), with concentrations ranging from 0.98 to 250 µg/mL. Vancomycin was used as positive control while TSB medium without bacteria was used as negative control. After 24 h of incubation and reaching static growth at 37°C, culture media as well as planktonic cells were removed, then the biofilm in each well was washed thrice with 0.85% NaCl. For CV staining, biofilms were fixed with 95% ethanol and stained with a 0.1% (v/v) CV solution for 15 min. After removal of excess dye, each well was washed thrice with 0.85% NaCl and resuspended in 95% ethanol to dissolve bound dye. Absorbance was determined at 570 nm using a Multiskan SkyHigh microplate reader (Thermo Scientific™, Singapore). All experiments were done in six technical replicates and repeated independently three times. Minimum biofilm inhibitory concentrations at 50% and 90% (MBIC50 and MBIC90) refers to concentrations of the peptide at which the inhibition of biofilm was at least 50% and 90%, respectively.

[10] = system: human red blood cells (hRBCs); test: Hemolysis activity (hemoglobin release); type: cell-based; conditions: 1 h, 37°C; for MHC, minimum hemolytic concentration: peptide concentration causing 10% hemolysis of hRBCs, 2% hRBCs in 10 mM PBS, OD405
Method: The effect of peptides on human red blood cells (hRBCs) was assessed by observing the release of hemoglobin upon treated with peptide. Briefly, the hRBCs were obtained from healthy volunteers and subsequently diluted in 10 mM PBS to a concentration of 2% hRBCs. An equal volume of 2% hRBCs and peptide at concentration of 0.98–250 µg/mL in 10 mM PBS mixtures were incubated for 1 h at 37°C. Following incubation, the suspension was centrifuged, then supernatants were collected and transferred to 96-well microplates for measurement of absorbance at OD of 405 nm (OD405). This study was performed in accordance with the Thammasat University Ethics Committee (COA No. 066/2562). Written informed consent was obtained from all volunteers.

[11] = system: all gram-negative bacterial strains; test: Mean MIC and therapeutic index, gram-negative strains; type: cell-based; conditions: four gram-negative strains
Method: as §1
(§3) The therapeutic index (TI) is widely used for evaluating a peptide’s efficacy and safety. It is the ratio between the minimum hemolytic concentration (MHC, the concentration causing 10% hemolysis) and the geometric mean (GM) value of the MIC [15]. […] While, both lysine-substituted peptides (BiF2_7K and BiF2_5K7K) had higher TIs against all tested biofilm-forming bacteria than did the two parent peptides, and the TI of BiF2_5K7K was higher than that of BiF2_7K.

[12] = system: all gram-positive bacterial strains; test: Mean MIC and therapeutic index, gram-positive strains; type: cell-based; conditions: four gram-positive strains
Method: as §1, §3

Structure (SMILES)	MIC [1]	MBC [1]	MIC [2]	MBC [2]	MIC [3]	MBC [3]	MIC [4]	MBC [4]	MIC [5]	MBC [5]	MIC [6]	MBC [6]	MIC [7]	MBC [7]	MIC [8]	MBC [8]	MBIC50 [9]	MBIC90 [9]	MHC, minimum hemolytic concentration [10]	GM-, geometric mean of MIC values from all gram-negative bacterial strains [11]	also measured
CC[C@H](C)[C@H](NC(=O)[C@H](CC(C)C)NC(=O)[C@H](CCCCN)NC(=O)[C@@H](NC(=O)[C@H](CC(C)C)NC(=O)[C@@H](N)Cc1ccccc1)C(C)C)C(=O)N[C@@H](CC(C)C)C(=O)N[C@@H](CCCCN)C(=O)N[C@H](C(=O)N[C@@H](CC(C)C)C(=O)N[C@@H](CCCNC(=N)N)C(=O)N[C@@H](CCCNC(=N)N)C(N)=O)[C@@H](C)CC [BiF2] (H-FLVKLILKILRR-NH2; N-terminus assumed)	15.63 µg/mL (≈ 10.3 µM)	31.25 µg/mL (≈ 20.7 µM)	62.5 µg/mL (≈ 41.4 µM)	62.5 µg/mL (≈ 41.4 µM)	15.6 µg/mL (≈ 10.3 µM)	15.6 µg/mL (≈ 10.3 µM)	62.5 µg/mL (≈ 41.4 µM)	62.5 µg/mL (≈ 41.4 µM)	15.63 µg/mL (≈ 10.3 µM)	31.25 µg/mL (≈ 20.7 µM)	31.25 µg/mL (≈ 20.7 µM)	62.5 µg/mL (≈ 41.4 µM)	31.2 µg/mL (≈ 20.7 µM)	31.2 µg/mL (≈ 20.7 µM)	62.5 µg/mL (≈ 41.4 µM)	62.5 µg/mL (≈ 41.4 µM)	125 µg/mL	250 µg/mL	1.95 µg/mL	42.97 µg/mL	GM +, geometric mean of MIC values from all gram-positive bacterial strains [12]: 31.25 µg/mL
CC[C@H](C)[C@H](NC(=O)[C@H](CC(C)C)NC(=O)[C@H](CCCCN)NC(=O)[C@@H](NC(=O)[C@H](CC(C)C)NC(=O)[C@@H](N)Cc1ccccc1)C(C)C)C(=O)N[C@@H](CCCCN)C(=O)N[C@@H](CCCCN)C(=O)N[C@H](C(=O)N[C@@H](CC(C)C)C(=O)N[C@@H](CCCNC(=N)N)C(=O)N[C@@H](CCCNC(=N)N)C(N)=O)[C@@H](C)CC [BiF2_7K] (H-FLVKLIKKILRR-NH2; N-terminus assumed)	7.81 µg/mL (≈ 5.12 µM)	7.81 µg/mL (≈ 5.12 µM)	7.81 µg/mL (≈ 5.12 µM)	7.81 µg/mL (≈ 5.12 µM)	7.81 µg/mL (≈ 5.12 µM)	7.81 µg/mL (≈ 5.12 µM)	15.6 µg/mL (≈ 10.2 µM)	15.6 µg/mL (≈ 10.2 µM)	15.6 µg/mL (≈ 10.2 µM)	15.6 µg/mL (≈ 10.2 µM)	7.81 µg/mL (≈ 5.12 µM)	7.81 µg/mL (≈ 5.12 µM)	31.2 µg/mL (≈ 20.5 µM)	31.2 µg/mL (≈ 20.5 µM)	7.81 µg/mL (≈ 5.12 µM)	15.63 µg/mL (≈ 10.2 µM)	3.91 µg/mL	7.81 µg/mL	15.63 µg/mL	15.63 µg/mL	hemolytic activity ([10]; at 250 µg/mL (maximum concentration tested)): 60%; GM +, geometric mean of MIC values from all gram-positive bacterial strains [12]: 9.77 µg/mL
